Measured values reported in US10227324B2 (Shanghai Haiyan Pharmaceutical Technology Co., Ltd., priority 2014, dated 2019).
Like-named read-outs stand apart in the source and are kept apart here.

Experiments:
[1] = molecular target: T1, PI3K-α kinase (p110α/p85α) (Homo sapiens, UniProt P42336); assay: Determination of PI3K kinase activity (ADP Transcreener, fluorescence polarization); type: biochemical; conditions: ATP 10 μM
T1 construct: purchased Invitrogen PV4788
Method: (§1) The inhibition of PI3K kinase activity by the compound to be tested was determined by the following method. The working concentration of each component in the 25 μL enzyme reaction system was: p110α/p85α 3 ng (or p110β/p85α 60 ng, or p110δ/p85α 90 ng, or p110γ 100 ng), ATP 10 μM, PIP2: PS (Invitrogen PV5100) 30 μM and the DMSO concentration was 2% after addition of the compound to be tested.
(§2) At the time of the test, the compound to be tested was dissolved in dimethylsulfoxide (DMSO) according to the desired concentration of the experiment. The compound to be tested was gradiently diluted 3 times (0.00046-1 μM, 8 concentration points) with 10% DMSO. 5 μL of the compound to be tested was added to each well of a 96-well plate (Greiner 675076) in duplicate. […] 10 μL of ATP/PIP2: PS and 10 μL of the PI3K enzyme working solution were added to each well in a 96-well plate. The plate was shaken and mixed uniformly, and then incubated at 25° C. for 1 hour. At the same time, ADP and ATP (0.01 μM, 0.02 μM, 0.04 μM, 0.06 μM, 0.08 μM[…], 0.1 μM, 0.25 μM, 0.5 μM, 1 μM, 2 μM, 5 μM, 10 μM, 12 concentration points) were diluted with buffer to set the standard curve. After completion of the enzyme reaction, 25 μL of ADP assay solution (1% 100×ADP tracer, 0.79% ADP antibody and 10% 10× reaction stop solution) was added and incubated at 25° C. for 1 hour. Fluorescence polarization value [mP] of each well was measured with a Perkin Elmer Victor X5 Fluorescent Microplate. The ADP concentration [ADP] was calculated from the ADP/ATP standard curve and the IC50 values were calculated using the XLFit software.

PI3K-γ kinase (p110γ) = molecular target: T2, PI3K-γ kinase (p110γ) (Homo sapiens, UniProt P48736); assay: as above; type: biochemical; conditions: Table 1; ATP 10 μM; read-out: PI3K-γ/nM (IC50 of inhibitory activity against PI3K kinase)
T2 construct: purchased Invitrogen PV4786
Method: The PI3K kinase used in the experiment: p110α/p85α (Invitrogen PV4788), p110β/p85α (Millipore 14-603), p110δ/p85α (Millipore 14-604M), and p110γ (Invitrogen PV4786).
as §1
as §2, with “duplicate. 2.5× buffer was prepared and 1 μL of DTT (Millipore 20-265) was added to each 800 μL of 2.5× buffer.” for “duplicate.”

[2] = molecular target: T3, PI3K-δ kinase (p110δ/p85α) (Homo sapiens, UniProt O00329); assay: as above; type: biochemical; conditions: Table 1; ATP 10 μM; read-out: PI3K-δ/nM (IC50 of inhibitory activity against PI3K kinase)
T3 construct: purchased Millipore 14-604M
Method: as §1, §2

[3] = molecular target: T4, PI3K-β kinase (p110β/p85α) (Homo sapiens, UniProt P42338); assay: as above; type: biochemical; conditions: Table 1; ATP 10 μM; read-out: PI3K-β/nM (IC50 of inhibitory activity against PI3K kinase)
T4 construct: purchased Millipore 14-603
Method: as §1, §2

MCF-7 cells = assay: Cell inhibitory activity detected by MTT assay, MCF-7; type: cell-based; conditions: Homo sapiens, MCF7, 72 h, read-out: MCF-7 cell (IC50/nM), cell growth inhibition
Method: (§3) The MTT assay procedure and steps were carried out as well known to those skilled in the art, and all the reagents used in the methods were commercially available. The cells in logarithmic growth phase were digested with 0.25% EDTA trypsin (Gibco, 25200-056) and resuspended in fresh medium. 90 μL of the cell suspension was inoculated into a 96-well cell culture plate (BD Faclon 353072) with a suitable cell density and cultured at 37° C. under 5% CO2. After the cells adhered, 10 μL of the test compound at different concentrations (0.0046-10 μM, 8 concentration points) was added and incubated for another 72 h. 10 μL of MTT (5 mg/mL PBS solution) (Sigma, M5655) was added to react for 4 h. The absorbance at 492 nm was measured by using Thermo Scientific Multiskan MK3 microplate reader and IC50 was calculated using XLFIT 5.0 software (UK IDBS). MCF-7 cell culture medium: DMEM medium (Hyclone SH30243.01B+10% FBS (Gibco 10099-141)

T47D cells = assay: Cell inhibitory activity detected by MTT assay, T47D; type: cell-based; conditions: Homo sapiens, T47D, 72 h, read-out: T47D cell (IC50/nM), cell growth inhibition
Method: as §3, with “T47D” for “MCF-7”, “RPMI-1640” for “DMEM”, “SH30809.01B)+10%” for “SH30243.01B+10%”

[4] = Table 2, read-out: PI3K-α/nM (IC50 of inhibitory activity against PI3K-α kinase)
[5] = Table 1, read-out: PI3K-α/nM (IC50 of inhibitory activity against PI3K kinase)

T1 sequence (P42336 whole entry): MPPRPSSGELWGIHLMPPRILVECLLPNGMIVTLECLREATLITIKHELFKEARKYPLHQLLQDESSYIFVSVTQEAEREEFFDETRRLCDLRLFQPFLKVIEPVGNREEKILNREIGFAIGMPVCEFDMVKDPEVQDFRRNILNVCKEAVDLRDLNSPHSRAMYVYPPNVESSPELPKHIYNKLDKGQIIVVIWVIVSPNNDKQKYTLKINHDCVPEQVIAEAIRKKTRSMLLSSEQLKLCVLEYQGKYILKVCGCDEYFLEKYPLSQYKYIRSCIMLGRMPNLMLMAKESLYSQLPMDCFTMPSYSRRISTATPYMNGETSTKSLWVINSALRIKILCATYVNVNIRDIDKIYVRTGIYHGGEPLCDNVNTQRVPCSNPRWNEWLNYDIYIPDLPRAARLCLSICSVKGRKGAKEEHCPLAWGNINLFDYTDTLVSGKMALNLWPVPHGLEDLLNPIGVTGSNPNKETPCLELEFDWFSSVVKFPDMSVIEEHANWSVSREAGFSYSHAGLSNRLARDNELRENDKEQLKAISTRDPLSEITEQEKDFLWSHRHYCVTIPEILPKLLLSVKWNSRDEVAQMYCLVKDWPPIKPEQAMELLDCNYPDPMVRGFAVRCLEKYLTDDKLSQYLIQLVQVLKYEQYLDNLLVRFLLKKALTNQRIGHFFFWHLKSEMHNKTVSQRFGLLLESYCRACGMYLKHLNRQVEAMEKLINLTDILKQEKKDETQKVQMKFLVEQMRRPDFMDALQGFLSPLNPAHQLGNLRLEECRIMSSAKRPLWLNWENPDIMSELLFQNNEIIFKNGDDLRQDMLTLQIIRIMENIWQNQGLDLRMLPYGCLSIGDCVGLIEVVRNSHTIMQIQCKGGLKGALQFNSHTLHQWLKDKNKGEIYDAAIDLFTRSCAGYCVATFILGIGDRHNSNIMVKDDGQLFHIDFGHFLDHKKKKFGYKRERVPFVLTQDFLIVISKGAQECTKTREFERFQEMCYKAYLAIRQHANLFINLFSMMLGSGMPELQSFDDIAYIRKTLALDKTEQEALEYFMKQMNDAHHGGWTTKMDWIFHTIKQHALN
T1 sequence (P27986 whole entry partner): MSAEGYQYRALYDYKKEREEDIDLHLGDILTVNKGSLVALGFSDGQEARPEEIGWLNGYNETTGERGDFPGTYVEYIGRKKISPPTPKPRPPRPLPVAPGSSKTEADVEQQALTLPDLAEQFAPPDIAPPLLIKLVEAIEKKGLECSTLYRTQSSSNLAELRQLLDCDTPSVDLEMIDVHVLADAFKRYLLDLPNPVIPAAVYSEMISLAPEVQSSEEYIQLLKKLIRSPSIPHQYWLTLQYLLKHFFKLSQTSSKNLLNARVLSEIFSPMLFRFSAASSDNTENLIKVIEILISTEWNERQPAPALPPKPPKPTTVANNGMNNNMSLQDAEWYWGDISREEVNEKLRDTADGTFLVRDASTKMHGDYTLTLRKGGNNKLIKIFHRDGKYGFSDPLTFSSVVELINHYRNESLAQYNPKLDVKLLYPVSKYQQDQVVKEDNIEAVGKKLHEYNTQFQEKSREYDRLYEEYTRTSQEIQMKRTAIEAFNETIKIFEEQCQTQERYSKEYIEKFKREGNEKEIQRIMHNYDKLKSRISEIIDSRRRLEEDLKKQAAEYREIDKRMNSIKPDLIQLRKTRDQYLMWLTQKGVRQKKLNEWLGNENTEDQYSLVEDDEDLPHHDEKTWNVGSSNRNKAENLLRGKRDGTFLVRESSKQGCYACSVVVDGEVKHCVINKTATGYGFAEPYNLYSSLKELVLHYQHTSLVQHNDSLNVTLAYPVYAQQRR
T2 sequence (P48736 whole entry): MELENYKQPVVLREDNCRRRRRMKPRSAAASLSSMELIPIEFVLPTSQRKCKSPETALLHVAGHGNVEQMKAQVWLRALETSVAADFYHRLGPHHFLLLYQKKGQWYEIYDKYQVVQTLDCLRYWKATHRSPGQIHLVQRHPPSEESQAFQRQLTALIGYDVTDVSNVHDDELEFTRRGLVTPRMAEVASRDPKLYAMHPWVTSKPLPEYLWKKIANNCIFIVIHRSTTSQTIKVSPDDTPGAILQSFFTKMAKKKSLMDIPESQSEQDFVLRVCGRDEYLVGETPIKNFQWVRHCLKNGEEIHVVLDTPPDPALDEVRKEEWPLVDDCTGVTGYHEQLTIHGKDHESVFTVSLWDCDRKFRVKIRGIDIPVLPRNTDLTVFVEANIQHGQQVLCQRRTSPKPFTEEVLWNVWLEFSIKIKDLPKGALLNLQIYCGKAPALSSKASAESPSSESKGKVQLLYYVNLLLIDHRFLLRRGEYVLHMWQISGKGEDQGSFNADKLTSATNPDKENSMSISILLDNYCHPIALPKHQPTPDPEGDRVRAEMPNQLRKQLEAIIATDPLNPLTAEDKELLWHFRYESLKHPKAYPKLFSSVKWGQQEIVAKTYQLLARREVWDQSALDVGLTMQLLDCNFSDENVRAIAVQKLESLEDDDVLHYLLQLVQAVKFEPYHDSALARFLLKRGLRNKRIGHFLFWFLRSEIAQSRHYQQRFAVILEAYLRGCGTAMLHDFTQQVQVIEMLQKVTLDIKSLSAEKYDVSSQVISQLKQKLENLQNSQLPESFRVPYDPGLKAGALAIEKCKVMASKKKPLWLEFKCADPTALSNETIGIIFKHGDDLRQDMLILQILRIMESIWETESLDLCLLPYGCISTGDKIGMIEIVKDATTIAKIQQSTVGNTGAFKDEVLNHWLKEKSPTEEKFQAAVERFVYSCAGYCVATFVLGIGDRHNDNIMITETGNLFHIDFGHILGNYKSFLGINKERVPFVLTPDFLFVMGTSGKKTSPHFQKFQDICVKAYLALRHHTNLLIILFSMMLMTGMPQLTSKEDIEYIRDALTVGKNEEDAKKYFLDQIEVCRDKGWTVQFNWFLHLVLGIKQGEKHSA
T4 sequence (P42338 whole entry): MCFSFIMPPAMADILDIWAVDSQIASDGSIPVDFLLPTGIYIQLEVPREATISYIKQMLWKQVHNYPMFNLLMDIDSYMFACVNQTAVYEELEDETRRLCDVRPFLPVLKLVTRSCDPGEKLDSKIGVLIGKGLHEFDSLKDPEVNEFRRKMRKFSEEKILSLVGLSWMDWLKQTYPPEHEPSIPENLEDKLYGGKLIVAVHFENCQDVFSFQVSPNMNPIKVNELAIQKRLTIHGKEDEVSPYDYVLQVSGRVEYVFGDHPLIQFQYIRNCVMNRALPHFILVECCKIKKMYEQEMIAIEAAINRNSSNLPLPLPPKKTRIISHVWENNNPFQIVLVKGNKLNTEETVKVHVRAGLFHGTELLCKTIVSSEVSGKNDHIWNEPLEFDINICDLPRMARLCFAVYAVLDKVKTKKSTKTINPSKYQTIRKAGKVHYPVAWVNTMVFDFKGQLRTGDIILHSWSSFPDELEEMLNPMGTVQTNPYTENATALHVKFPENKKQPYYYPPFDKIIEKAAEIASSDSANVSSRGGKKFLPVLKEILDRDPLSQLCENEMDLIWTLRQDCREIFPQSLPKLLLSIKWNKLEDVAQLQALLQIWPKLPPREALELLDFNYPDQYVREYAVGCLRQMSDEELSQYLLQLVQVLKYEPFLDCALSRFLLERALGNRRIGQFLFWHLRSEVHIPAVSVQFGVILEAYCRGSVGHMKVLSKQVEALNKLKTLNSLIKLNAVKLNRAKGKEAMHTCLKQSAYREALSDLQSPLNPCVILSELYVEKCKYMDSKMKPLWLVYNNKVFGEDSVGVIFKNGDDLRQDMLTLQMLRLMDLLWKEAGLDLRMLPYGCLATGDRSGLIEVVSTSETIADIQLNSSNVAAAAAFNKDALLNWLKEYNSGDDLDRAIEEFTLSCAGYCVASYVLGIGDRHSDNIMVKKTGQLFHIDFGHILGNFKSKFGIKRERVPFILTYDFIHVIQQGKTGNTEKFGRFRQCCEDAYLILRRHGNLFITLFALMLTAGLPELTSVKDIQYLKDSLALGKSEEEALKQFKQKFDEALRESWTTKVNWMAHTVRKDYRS
T4 sequence (P27986 whole entry partner): as the sequence (P27986 whole entry partner) above
T3 sequence (O00329 whole entry): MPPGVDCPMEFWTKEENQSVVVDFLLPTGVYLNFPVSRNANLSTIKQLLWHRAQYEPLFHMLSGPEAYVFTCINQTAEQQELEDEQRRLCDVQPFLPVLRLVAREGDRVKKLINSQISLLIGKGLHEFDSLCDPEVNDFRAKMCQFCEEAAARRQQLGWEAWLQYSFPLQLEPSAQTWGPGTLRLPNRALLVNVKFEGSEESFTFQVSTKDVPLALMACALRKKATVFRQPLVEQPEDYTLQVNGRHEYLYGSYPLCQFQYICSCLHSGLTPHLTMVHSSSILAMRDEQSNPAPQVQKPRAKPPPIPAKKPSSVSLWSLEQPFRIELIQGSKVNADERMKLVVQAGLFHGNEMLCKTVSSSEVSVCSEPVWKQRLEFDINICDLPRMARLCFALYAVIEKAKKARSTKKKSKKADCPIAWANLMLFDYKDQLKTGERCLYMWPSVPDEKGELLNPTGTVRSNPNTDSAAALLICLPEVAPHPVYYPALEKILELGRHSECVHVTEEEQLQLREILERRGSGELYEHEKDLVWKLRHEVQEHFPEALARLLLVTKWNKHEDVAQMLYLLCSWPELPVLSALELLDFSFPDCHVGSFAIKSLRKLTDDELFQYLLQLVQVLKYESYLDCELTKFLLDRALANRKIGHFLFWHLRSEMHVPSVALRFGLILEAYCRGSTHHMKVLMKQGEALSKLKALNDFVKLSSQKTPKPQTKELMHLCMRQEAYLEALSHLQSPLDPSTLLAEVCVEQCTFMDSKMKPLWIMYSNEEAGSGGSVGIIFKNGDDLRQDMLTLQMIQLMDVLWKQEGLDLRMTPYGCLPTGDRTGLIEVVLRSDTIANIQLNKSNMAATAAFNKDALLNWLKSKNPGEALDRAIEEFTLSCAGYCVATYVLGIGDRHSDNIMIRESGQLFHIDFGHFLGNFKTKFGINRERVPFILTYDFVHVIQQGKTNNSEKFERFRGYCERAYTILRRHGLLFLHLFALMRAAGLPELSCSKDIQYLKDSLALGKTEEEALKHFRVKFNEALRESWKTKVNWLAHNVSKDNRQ
T3 sequence (P27986 whole entry partner): as the sequence (P27986 whole entry partner) above

SMILES | IC50 [1, 4] | IC50 (PI3K-γ kinase (p110γ)) | IC50 [1, 5] | IC50 [2] | IC50 [3] | IC50 (MCF-7 cells) | IC50 (T47D cells)
CS(=O)(=O)C1(c2cc(-c3cnc(N)cc3C(F)(F)F)nc(N3CCOCC3)n2)CC1 [Compound S-1, 5-(6-(1-(methylsulfonyl)cyclopropyl)-2-morpholinopyrimidin-4-yl)-4-(trifluoromethyl)pyridin-2-amine] |  | 288 nM | 16 nM |  |  |  | 
CC(C)(c1cc(-c2cnc(N)cc2C(F)(F)F)nc(N2CCOCC2)n1)S(C)(=O)=O [Compound S-16] |  | 138 nM |  | 244 nM | 196 nM |  | 
C[C@H]1COCCN1c1nc(-c2cnc(N)cc2C(F)(F)F)cc(C2(S(C)(=O)=O)CCCC2)n1 [Compound S-42] |  | 718 nM |  | 324 nM | 1210 nM | 159 nM | 139 nM
COc1nc(N)ncc1-c1cc(C2(S(C)(=O)=O)CCC2)nc(N2CCOC[C@@H]2C)n1 [Compound S-43] |  |  |  |  |  |  | 317 nM
CC(C)(c1cc(-c2cnc(N)cc2Cl)nc(N2CCOCC2)n1)S(=O)(=O)c1ccccc1 [Compound S-55, 4-chloro-5-(2-morpholinyl-6-(2-(phenylsulfonyl)propan-2-yl)pyrimidin-4-yl)pyridin-2-amine] | 40 nM |  |  |  |  |  | 
Cc1cnc(C2(c3cc(-c4cnc(N)cc4C(F)(F)F)nc(N4CCOCC4)n3)CC2)o1 [Compound S-61, 5-(6-(1-(5-methyloxazol-2-yl)cyclopropyl)-2-morpholinopyrimidin-4-yl)-4-(trifluoromethyl)pyridin-2-amine] | 195 nM |  |  |  |  |  | 
CC(C)(c1cc(-c2cnc(N)cc2C(F)(F)F)nc(N2CCOCC2)n1)S(=O)(=O)c1ccc(F)cc1 [Compound S-69] | 59 nM |  |  |  |  |  | 
CC(C)(c1cc(-c2cnc(N)cc2Cl)nc(N2CCOCC2)n1)S(=O)(=O)c1cccc(F)c1 [Compound S-70] | 22 nM |  | 22 nM |  | 525 nM |  | 219 nM
C[C@@H]1COCCN1c1nc(-c2cnc(N)cc2C(F)(F)F)cc(C(C)(C)O)n1 [Compound S-72] | 18 nM | 1150 nM | 18 nM | 370 nM | 797 nM |  | 
C[C@H]1COCCN1c1nc(-c2cnc(N)cc2Cl)cc(C(C)(C)O)n1 [Compound S-73] | 14 nM | 623 nM | 14 nM | 514 nM | 396 nM | 176 nM | 
Nc1cc(C(F)(F)F)c(-c2cc(C3(S(=O)(=O)c4ccc(F)c(F)c4)CC3)nc(N3CCOCC3)n2)cn1 [Compound S-77] | 62 nM |  |  |  |  |  | 
Nc1cc(C(F)(F)F)c(-c2cc(C3(S(=O)(=O)c4ccccc4Cl)CC3)nc(N3CCOCC3)n2)cn1 [Compound S-78] | 7 nM | 925 nM | 7 nM | 85 nM | 419 nM | 318 nM | 206 nM
CC(C)(c1cc(-c2cnc(N)cc2C(F)(F)F)nc(N2CCOCC2)n1)S(=O)(=O)c1ccccc1Cl [Compound S-80] | 31 nM |  |  |  |  | 474 nM | 
Nc1cc(Cl)c(-c2cc(C3(S(=O)(=O)C4CC4)CC3)nc(N3CCOCC3)n2)cn1 [Compound S-87] | 14 nM | 134 nM | 14 nM | 117 nM | 386 nM | 170 nM | 101 nM

Now from value to molecule:

IC50 [1, 4] | IC50 (PI3K-γ kinase (p110γ)) | IC50 [1, 5] | IC50 [2] | IC50 [3] | IC50 (MCF-7 cells) | IC50 (T47D cells) | SMILES
> 1000 nM |  |  |  |  |  |  | CS(=O)(=O)C1(c2cc(-c3ccc(N)cc3C(F)(F)F)nc(N3CCOCC3)n2)CC1 [Comparative compound 3, 4-(6-(1-(methylsulfonyl)cyclopropyl)-2-morpholinopyrimidin-4-yl)-3-(trifluoromethyl)aniline, reference compound]
285 nM |  |  |  |  |  |  | CNC1(c2cc(-c3cnc(N)cc3C(F)(F)F)nc(N3CCOC[C@@H]3C)n2)CCC1 [Compound S-27, (S)-5-(6-(1-(methylamino)cyclobutyl)-2-(3-methylmorpholino)pyrimidin-4-yl)-4-(trifluoromethyl)pyridin-2-amine]
 | 765 nM |  | 78 nM | 121 nM |  |  | CCS(=O)(=O)C1(c2cc(-c3cnc(N)cc3C(F)(F)F)nc(N3CCOCC3)n2)CC1 [Compound S-28]
35 nM |  |  |  |  |  |  | CC(C)(c1cc(-c2cnc(N)cc2C(F)(F)F)nc(N2CCOCC2)n1)S(=O)(=O)c1cccc(F)c1 [Compound S-60]
189 nM |  |  |  |  |  |  | CS(=O)(=O)Cc1cc(-c2cnc(N)cc2C(F)(F)F)nc(N2CCOCC2)n1 [Compound S-62, 5-(6-(methylsulfonylmethyl)-2-morpholinopyrimidin-4-yl)-4-(trifluoromethyl)pyridin-2-amine]
22 nM |  | 22 nM |  | 1220 nM | 469 nM | 280 nM | CC(C)(c1cc(-c2cnc(N)cc2C(F)(F)F)nc(N2CCOCC2)n1)S(=O)(=O)c1ccccc1F [Compound S-65]
28 nM | 2500 nM | 28 nM | 1010 nM | 2090 nM |  |  | COC(C)(C)c1cc(-c2cnc(N)cc2C(F)(F)F)nc(N2CCOC[C@H]2C)n1 [Compound S-74]
55 nM |  |  |  |  |  |  | CC(C)(c1cc(-c2cnc(N)cc2C(F)(F)F)nc(N2CCOCC2)n1)S(=O)(=O)c1ccc(F)c(F)c1 [Compound S-79]
75 nM |  |  |  |  |  |  | CS(=O)(=O)NC1(c2cc(-c3cnc(N)cc3Cl)nc(N3CCOCC3)n2)CC1 [Compound S-90]
